# Columns and labels:
# [1] = biological target: T1, NT2 (residues 1–604 of mouse IP3R2) (Mus musculus, UniProt Q9Z329); assay: Equilibrium-competition binding with ^3H-IP3 to purified NT2; conditions: NT versus corresponding full-length IP3R
# T1 construct: N-terminal fragments (NT, residues 1–604) of rat IP3R1, mouse IP3R2 and rat IP3R3; GST (cleaved yes); made in house; host or cells: E. coli BL21-CodonPlus (DE3)-RILP
# Protocol: The plasmids used for bacterial expression of GST-tagged N-terminal fragments (NT, residues 1–604) of rat IP3R1, mouse IP3R2 and rat IP3R3 have been described, and their coding sequences have been confirmed (Khan et al., [2013]). Plasmids were transformed into BL21-CodonPlus (DE3)-RILP competent cells (Rossi and Taylor, [2011]), and grown for 12 h at 37°C in 20 mL of Luria-Bertani (LB) medium containing carbecillin (50 μg·mL^−1). The volume of medium was then increased to 1 L, and the incubation was continued at 37°C for 3–4 h until the OD600 reached 1–1.5. Protein expression was induced by addition of IPTG (0.5 mM) for 20 h at 15°C. Bacteria were harvested (6000× g, 5 min), washed twice with cold PBS, and the pellet was suspended (∼10^9 cells·mL^−1) in 50 mL of Tris-EDTA medium (TEM: 50 mM Tris, 1 mM EDTA, pH 8.3) supplemented with 10% PopCulture, 1 mM 2-mercaptoethanol and protease inhibitor cocktail (Roche, Burgess Hill, West Sussex, UK; 1 tablet per 50 mL). […]
# (§1) Reactions were terminated after 5 min by centrifugation (20,000× g, 5 min) for membranes, or by centrifugation after addition of poly(ethylene glycol)-8000 [30% (w/v), 500 μL] and γ-globulin (30 μL, 25 mg·mL^−1) for NT. […] Results were fitted to Hill equations using Prism, from which IC50 values were calculated.
# rat IP3R1 = biological target: T2, rat IP3R1 (Rattus norvegicus, UniProt P29994); assay: IP3-evoked Ca^2+ release from permeabilized DT40-IP3R1 cells; type: cell-based
# T2 construct: different for NTs (NT2 > NT1 > > NT3) and full-length IP3Rs (IP3R3 > IP3R1 ≥ IP3R2); expressed in transfected cells
# T2 sequence (P29994 1-2735 isoform P29994-2): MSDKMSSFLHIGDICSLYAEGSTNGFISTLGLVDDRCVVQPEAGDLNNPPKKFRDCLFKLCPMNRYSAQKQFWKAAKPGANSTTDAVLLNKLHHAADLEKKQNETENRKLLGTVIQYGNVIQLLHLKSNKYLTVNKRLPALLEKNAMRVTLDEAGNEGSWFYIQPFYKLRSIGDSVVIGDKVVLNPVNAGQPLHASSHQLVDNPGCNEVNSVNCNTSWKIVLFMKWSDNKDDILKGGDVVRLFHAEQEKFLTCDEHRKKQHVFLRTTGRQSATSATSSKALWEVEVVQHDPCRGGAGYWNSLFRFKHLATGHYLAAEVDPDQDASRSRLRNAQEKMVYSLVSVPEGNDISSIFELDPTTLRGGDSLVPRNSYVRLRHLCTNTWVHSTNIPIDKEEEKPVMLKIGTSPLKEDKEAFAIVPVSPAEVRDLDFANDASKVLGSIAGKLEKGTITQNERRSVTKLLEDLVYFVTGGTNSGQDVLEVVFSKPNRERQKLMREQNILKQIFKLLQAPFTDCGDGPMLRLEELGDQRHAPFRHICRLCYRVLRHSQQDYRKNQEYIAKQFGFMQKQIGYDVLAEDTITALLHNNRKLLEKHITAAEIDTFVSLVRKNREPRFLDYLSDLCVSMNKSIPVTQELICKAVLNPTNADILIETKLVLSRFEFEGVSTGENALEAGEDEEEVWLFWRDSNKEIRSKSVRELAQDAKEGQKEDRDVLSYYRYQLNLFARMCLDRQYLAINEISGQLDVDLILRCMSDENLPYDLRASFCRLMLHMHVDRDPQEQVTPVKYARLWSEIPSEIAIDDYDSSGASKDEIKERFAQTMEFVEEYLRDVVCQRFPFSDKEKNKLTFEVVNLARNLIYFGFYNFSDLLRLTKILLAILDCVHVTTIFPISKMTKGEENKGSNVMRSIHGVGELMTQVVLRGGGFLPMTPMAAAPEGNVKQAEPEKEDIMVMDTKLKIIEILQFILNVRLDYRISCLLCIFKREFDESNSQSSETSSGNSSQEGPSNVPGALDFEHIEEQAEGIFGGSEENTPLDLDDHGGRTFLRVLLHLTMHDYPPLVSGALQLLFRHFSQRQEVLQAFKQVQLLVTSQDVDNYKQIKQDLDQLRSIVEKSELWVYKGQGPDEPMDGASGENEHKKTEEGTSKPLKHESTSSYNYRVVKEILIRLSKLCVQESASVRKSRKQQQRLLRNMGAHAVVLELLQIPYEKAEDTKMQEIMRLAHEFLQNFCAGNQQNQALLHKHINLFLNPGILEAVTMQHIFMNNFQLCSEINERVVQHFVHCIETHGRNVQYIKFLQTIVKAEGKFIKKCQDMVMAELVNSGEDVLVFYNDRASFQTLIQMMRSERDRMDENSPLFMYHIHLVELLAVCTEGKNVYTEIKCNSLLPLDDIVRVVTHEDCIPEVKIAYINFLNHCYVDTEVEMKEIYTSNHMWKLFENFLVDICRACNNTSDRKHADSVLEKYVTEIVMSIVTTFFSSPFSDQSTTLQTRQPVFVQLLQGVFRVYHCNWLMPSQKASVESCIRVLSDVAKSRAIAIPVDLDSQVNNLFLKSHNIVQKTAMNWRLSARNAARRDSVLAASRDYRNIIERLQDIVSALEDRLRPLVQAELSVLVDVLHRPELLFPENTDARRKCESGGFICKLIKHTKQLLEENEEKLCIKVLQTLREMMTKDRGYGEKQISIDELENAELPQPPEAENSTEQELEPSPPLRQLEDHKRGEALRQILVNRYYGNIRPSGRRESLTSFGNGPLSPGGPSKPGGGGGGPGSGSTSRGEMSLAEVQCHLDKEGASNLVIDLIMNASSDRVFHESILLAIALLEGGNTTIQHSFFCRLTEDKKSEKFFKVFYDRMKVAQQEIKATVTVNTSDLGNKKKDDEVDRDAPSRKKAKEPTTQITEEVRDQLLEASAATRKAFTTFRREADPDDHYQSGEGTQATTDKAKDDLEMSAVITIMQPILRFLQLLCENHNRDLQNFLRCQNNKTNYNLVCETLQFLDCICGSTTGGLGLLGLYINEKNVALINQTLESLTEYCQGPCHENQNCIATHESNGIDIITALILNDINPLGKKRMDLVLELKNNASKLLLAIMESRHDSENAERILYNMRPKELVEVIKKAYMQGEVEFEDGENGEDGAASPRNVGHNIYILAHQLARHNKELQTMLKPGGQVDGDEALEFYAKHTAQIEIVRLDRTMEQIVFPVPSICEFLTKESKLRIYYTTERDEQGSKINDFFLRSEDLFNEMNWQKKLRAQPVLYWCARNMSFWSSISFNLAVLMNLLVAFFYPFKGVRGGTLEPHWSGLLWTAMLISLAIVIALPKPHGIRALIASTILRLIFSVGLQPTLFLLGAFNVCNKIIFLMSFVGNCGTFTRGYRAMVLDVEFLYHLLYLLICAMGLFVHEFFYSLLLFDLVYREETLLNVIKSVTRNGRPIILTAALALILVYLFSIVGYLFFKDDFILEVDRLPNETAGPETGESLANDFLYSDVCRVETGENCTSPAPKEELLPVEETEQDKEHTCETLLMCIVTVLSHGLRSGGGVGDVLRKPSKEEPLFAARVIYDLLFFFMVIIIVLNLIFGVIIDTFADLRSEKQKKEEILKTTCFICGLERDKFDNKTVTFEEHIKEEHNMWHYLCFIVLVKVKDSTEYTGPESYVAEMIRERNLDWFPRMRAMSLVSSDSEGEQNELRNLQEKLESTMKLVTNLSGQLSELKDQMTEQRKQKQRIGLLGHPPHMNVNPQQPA
# Protocol: (§2) We used DT40 cells lacking endogenous IP3Rs (Sugawara et al., [1997]), but stably expressing rat IP3R1 (GenBank accession number GQ233032.1; Pantazaka and Taylor, [2011]), mouse IP3R2 (GU980658.1; Tovey et al., [2010]) or rat IP3R3 (GQ233031.1; Rahman et al., [2009]). Cells were grown in suspension in RPMI 1640 medium supplemented with 10% FBS, 1% heat-inactivated chicken serum, 2 mM glutamine and 50 μM 2-mercaptoethanol at 37°C in humidified air containing 5% CO2. Cells were used or passaged when they reached a density of ∼1.5 × 10^6 cells mL^−1.
# (§3) A low-affinity Ca^2+ indicator trapped within the ER of permeabilized DT40 cells was used to measure IP3-evoked Ca^2+ release (Tovey et al., [2006]; Saleem et al., [2012]). Briefly, the ER was loaded with indicator by incubating cells (∼5 × 10^7 mL^−1) in the dark with Mag-fluo-4AM (20 μM) in HEPES-buffered saline (HBS) containing 0.02% (v/v) Pluronic F127 for 1 h at 22°C. HBS had the following composition: 135 mM NaCl, 5.9 mM KCl, 11.6 mM HEPES, 1.5 mM CaCl2, 11.5 mM glucose, 1.2 mM MgCl2, pH 7.3. After permeabilization of the plasma membrane with saponin (10 μg·mL^−1, 4 min, 37°C) in Ca^2+-free cytosol-like medium (CLM), permeabilized cells were washed (650× g, 2 min) and resuspended (∼10^7 mL^−1) in Mg^2+-free CLM containing carbonyl cyanide 4-(trifluoromethoxy) phenylhydrazone (FCCP, 10 μM) to inhibit mitochondria, and supplemented with CaCl2 to give a final free [Ca^2+] of 220 nM after addition of 1.5 mM MgATP. Ca^2+-free CLM had the following composition: 2 mM NaCl, 140 mM KCl, 1 mM EGTA, 20 mM PIPES, 2 mM MgCl2, pH 7.0. Permeabilized cells were then distributed into 96-well plates (50 μL, 5 × 10^5 cells per well), centrifuged (300× g, 2 min) and used for experiments at 20°C. Addition of MgATP (1.5 mM) allowed Ca^2+ uptake by the ER, which was monitored at intervals of ∼1 s using a FlexStation-3 plate reader (MDS Analytical Devices, Berkshire, UK; Tovey et al., [2006]). After 2 min, when the ER had loaded to steady-state with Ca^2+, IP3 was added with CPA (10 μM) to inhibit further Ca^2+ uptake. IP3-evoked Ca^2+ release was expressed as a fraction of that released by ionomycin (1 μM; Tovey et al., [2006]). Similar methods were used to measure IP3-evoked Ca^2+ release from intact or permeabilized HEK cells (Tovey et al., [2008]). The timings of antagonist additions are described in the figure legends. The affinity of each competitive antagonist (pKD) was determined from the intercept on the abscissa of the Schild plot.
# (§4) Concentration–effect relationships were fitted to Hill equations using Prism (version 5.0, GraphPad, San Diego, CA, USA), from which Hill coefficients (h), the fraction of the intracellular Ca^2+ stores released by a maximally effective concentrations of IP3, and pEC50 values were calculated.
# rat IP3R3 = biological target: T3, rat IP3R3 (Rattus norvegicus, UniProt Q63269); assay: IP3-evoked Ca^2+ release from permeabilized DT40-IP3R3 cells; type: cell-based
# T3 construct: different for NTs (NT2 > NT1 > > NT3) and full-length IP3Rs (IP3R3 > IP3R1 ≥ IP3R2); expressed in transfected cells
# Protocol: as §2, §3, §4
# mouse IP3R2 = biological target: T4, mouse IP3R2 (Mus musculus, UniProt Q9Z329); assay: IP3-evoked Ca^2+ release from permeabilized DT40-IP3R2 cells; type: cell-based
# T4 construct: different for NTs (NT2 > NT1 > > NT3) and full-length IP3Rs (IP3R3 > IP3R1 ≥ IP3R2); expressed in transfected cells
# Protocol: as §2, §3, §4
# [2] = test system: permeabilized DT40-IP3R1-3 cells; assay: Ca^2+ uptake and Ca^2+ content of the intracellular stores of permeabilized DT40 cells; type: cell-based
# Protocol: Briefly, the ER was loaded with indicator by incubating cells (∼5 × 10^7 mL^−1) in the dark with Mag-fluo-4AM (20 μM) in HEPES-buffered saline (HBS) containing 0.02% (v/v) Pluronic F127 for 1 h at 22°C. […] Ca^2+-free CLM had the following composition: 2 mM NaCl, 140 mM KCl, 1 mM EGTA, 20 mM PIPES, 2 mM MgCl2, pH 7.0. Permeabilized cells were then distributed into 96-well plates (50 μL, 5 × 10^5 cells per well), centrifuged (300× g, 2 min) and used for experiments at 20°C. […] After 2 min, when the ER had loaded to steady-state with Ca^2+, IP3 was added with CPA (10 μM) to inhibit further Ca^2+ uptake. […] The timings of antagonist additions are described in the figure legends. The affinity of each competitive antagonist (pKD) was determined from the intercept on the abscissa of the Schild plot.
# [3] = test system: cerebellar membranes (IP3R1); assay: ^3H-IP3 binding to cerebellar membranes; conditions: ^3H-IP3 1.5 nM, in CLM
# Protocol: as §1
# HEK cells = assay: Carbachol-evoked Ca^2+ signals in intact HEK cells; type: cell-based; conditions: Homo sapiens, HEK293; intact fluo-4-loaded HEK cells; control cells; read-out: pEC50 for the carbachol-evoked Ca^2+ signals (converted)
# Protocol: as §3
# [4] = IP3R1, AdA-evoked Ca^2+ release
# [5] = IP3R1, IP3-evoked Ca^2+ release
# [6] = IP3R1, heparin 400 μg·mL^−1, Δ = control – response with antagonist
# [7] = IP3R3, AdA-evoked Ca^2+ release
# [8] = IP3R2, IP3-evoked Ca^2+ release
# T1 sequence (Q9Z329 1-604): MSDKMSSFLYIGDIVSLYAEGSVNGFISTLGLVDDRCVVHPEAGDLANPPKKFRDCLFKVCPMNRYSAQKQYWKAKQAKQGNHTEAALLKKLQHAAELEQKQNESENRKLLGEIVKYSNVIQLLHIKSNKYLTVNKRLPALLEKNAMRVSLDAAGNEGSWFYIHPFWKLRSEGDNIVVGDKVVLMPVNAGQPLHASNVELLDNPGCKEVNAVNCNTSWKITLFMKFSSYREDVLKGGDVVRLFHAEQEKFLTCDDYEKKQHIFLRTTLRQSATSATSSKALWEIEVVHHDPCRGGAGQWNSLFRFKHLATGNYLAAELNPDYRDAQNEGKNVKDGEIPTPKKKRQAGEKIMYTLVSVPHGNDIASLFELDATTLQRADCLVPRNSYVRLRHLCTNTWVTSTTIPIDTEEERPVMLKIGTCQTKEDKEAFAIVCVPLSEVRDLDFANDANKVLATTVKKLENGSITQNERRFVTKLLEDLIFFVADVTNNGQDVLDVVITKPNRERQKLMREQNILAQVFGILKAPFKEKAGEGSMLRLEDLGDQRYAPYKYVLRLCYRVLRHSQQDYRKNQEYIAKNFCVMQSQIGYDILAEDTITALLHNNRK
compound,measurement,setting,value
Heparin,affinity of the NT for heparin relative to that measured in functional analyses / full-length IP3R,[1],up to 2000 fold
same,KD for heparin (Schild plot),rat IP3R1; [4],6.9 µg/mL
same,slope of the Schild plots,rat IP3R1; [4],0.94 ± 0.03
same,KD for heparin (Schild plot),rat IP3R1; [5],4.1 µg/mL
same,slope of the Schild plots,rat IP3R1; [5],0.95 ± 0.02
same,ΔMax,rat IP3R1; [6],−7 ± 2%
same,ΔpEC50,rat IP3R1; [6],1.88 ± 0.05 M
same,pEC50(IP3)-pKD(heparin),"rat IP3R1; IP3R1, paired comparisons",2.08 ± 0.02
same,KD for heparin (Schild plot),rat IP3R3; [7],2.1 µg/mL
same,slope of the Schild plots,rat IP3R3; [7],0.98 ± 0.04
same,slope of the Schild plots,"rat IP3R3; IP3R3, IP3-evoked Ca^2+ release",1.14 ± 0.41
same,KD for heparin (Schild plot),"rat IP3R3; IP3R3, IP3-evoked Ca^2+ release, 40% Ca^2+ release",2.8 µg/mL
same,ΔMax,"rat IP3R3; IP3R3, heparin 400 μg·mL^−1",−3 ± 3%
same,ΔpEC50,"rat IP3R3; IP3R3, heparin 400 μg·mL^−1",2.34 ± 0.07 M
same,pEC50(IP3)-pKD(heparin),"rat IP3R3; IP3R3, paired comparisons",1.11 ± 0.08
same,KD for heparin (Schild plot),mouse IP3R2; [8],22 µg/mL
same,slope of the Schild plots,mouse IP3R2; [8],0.97 ± 0.06
same,ΔMax,"mouse IP3R2; IP3R2, heparin 800 μg·mL^−1",−4 ± 2%
same,ΔpEC50,"mouse IP3R2; IP3R2, heparin 800 μg·mL^−1",1.49 ± 0.09 M
same,pEC50(IP3)-pKD(heparin),"mouse IP3R2; IP3R2, paired comparisons",2.16 ± 0.09
Cn1c(=O)c2c(ncn2C)n(C)c1=O [Caffeine],effect on Ca^2+ content of the intracellular stores,"[2]; DT40-IP3R1-3 cells, caffeine 70 mM added 2 min before ATP",significantly reduced
same,effect on binding of ^3H-IP3 to cerebellar membranes,[3],without affecting
"C[N+](C)(C)CCOC(N)=O [carbachol, Carbachol]",EC50,HEK cells,10200 nM
"NCCOB(c1ccccc1)c1ccccc1 [2-APB, 2-aminoethoxydiphenyl borate]",effect on Ca^2+ uptake by the ER,"[2]; permeabilized DT40-IP3R1 cells, 50 μM 2-APB",no effect
same,effect on steady-state Ca^2+ content of the ER,"[2]; permeabilized DT40-IP3R1 cells, 2-APB concentrations higher than 50 μM",reduced the steady-state Ca^2+ content
same,effect on binding of ^3H-IP3 to cerebellar membranes,[3],unaffected
same,ΔMax,"rat IP3R1; IP3R1, 2-APB 50 μM",0 ± 4%
same,ΔpEC50,"rat IP3R1; IP3R1, 2-APB 50 μM added 35 s before IP3",0.84 ± 0.12 M
same,effect on IP3-evoked Ca^2+ release,"rat IP3R3; DT40-IP3R3 cells, 2-APB 50 μM",no significant effect
same,ΔMax,"rat IP3R3; IP3R3, 2-APB 50 μM",8 ± 4%
same,ΔpEC50,"rat IP3R3; IP3R3, 2-APB 50 μM",0.02 ± 0.09 M
same,effect on IP3-evoked Ca^2+ release,"rat IP3R3; IP3R3, 2-APB 100 μM",some inhibition
same,effect on IP3-evoked Ca^2+ release,"mouse IP3R2; DT40-IP3R2 cells, 2-APB 50 μM",no significant effect
same,ΔMax,"mouse IP3R2; IP3R2, 2-APB 50 μM",0 ± 4%
same,effect on IP3-evoked Ca^2+ release,"mouse IP3R2; IP3R2, 2-APB 100 μM",no effect
"Nc1ncnc2c1ncn2[C@@H]1O[C@H](CO)[C@@H](O[C@H]2O[C@H](CO)[C@@H](OP(=O)(O)O)[C@H](OP(=O)(O)O)[C@H]2O)[C@H]1OP(=O)(O)O [AdA, adenophostin A]",EC50,"rat IP3R1; permeabilized DT40-IP3R1 cells, read-out: pEC50 (IP3 or AdA-evoked Ca^2+ release) (converted)",4.47 nM
same,EC50,"rat IP3R3; permeabilized DT40-IP3R3 cells, read-out: pEC50 (IP3 or AdA-evoked Ca^2+ release) (converted)",19.5 nM

# Reference: paper PMC4080982, “Interactions of antagonists with subtypes of inositol 1,4,5-trisphosphate (IP3) receptor” (British Journal of Pharmacology, 2014)
